Source: patent US12103904B2, “Benzoylglycine derivatives and methods of making and using same” (Duke University, priority 2016, dated 2024)
Values after ≈ are worked out from the molar mass of the structure shown.

How the values were obtained:
[1] = test system: N. gonorrhoeae HO41; test: Minimum Inhibitory Concentration (MIC) on GCB plates; type: cell-based, Neisseria gonorrhoeae; settings: ceftriaxone-resistant strain HO41
Protocol: (§1) Non-piliated variants of the indicated strains of Neisseria gonorrhoeae were grown overnight on GCB plates, resuspended in GCB broth with Kellogg's supplements I and II (Kellogg et al. (1963) Neisseria gonorrhoeae. I. Virulence genetically linked to colonial variation. J Bacteriol 85, 1274-1279), 10 mM MgCl2, and 20 mM sodium bicarbonate at a final OD600 of 0.018 (˜1×10^7 cfu/ml). Aliquots (5 μl) of each strain was spotted onto GCB plates containing the compounds at 2-fold dilution intervals. The MIC was defined as the lowest concentration of antibiotic on which fewer than 5 colonies appeared after 24 hrs of incubation.
(§2) FA19 is an antibiotic-susceptible strain (Maness, M. J., and Sparling, P. F. (1973) Multiple antibiotic resistance due to a single mutation in Neisseria gonorrhoeae. J Infect Dis 128, 321-330). 35/02 is a cephalosporin-intermediate resistant strain of N. gonorrhoeae isolated in Sweden in 2002 (Lindberg et al. (2007) Neisseria gonorrhoeae isolates with reduced susceptibility to cefixime and ceftriaxone: association with genetic polymorphisms in penA, mtrR, porB1b, and ponA. Antimicrob Agents Chemother 51, 2117-2122). This strain contains a mosaic penA gene (encoding variants of Penicillin-Binding Protein 2) associated with cephalosporin resistance, but the strain is not fully resistant. […] Lastly, F89 has an MIC of ceftriaxone=2 μg/ml (Unemo et al. (2011) High-level cefixime- and ceftriaxone-resistant N. gonorrhoeae in France: novel penA mosaic allele in a successful international clone causes treatment failure. Antimicrob Agents Chemother 56, 1273-1280).
(§3) “MIC50” refers to an amount, concentration or dosage of a particular test compound that achieves a 50% inhibition of a growth of a target organism. […] Representative results are also illustrated in Table 1.

[2] = test system: N. gonorrhoeae F89; test: as above; type: cell-based, Neisseria gonorrhoeae; settings: ceftriaxone-resistant strain F89
Protocol: as §1, §2, §3

[3] = test system: N. gonorrhoeae FA19; test: as above; type: cell-based, Neisseria gonorrhoeae; settings: antibiotic-susceptible strain FA19
Protocol: as §1, §2, §3

[4] = test system: N. gonorrhoeae 35/02; test: as above; type: cell-based, Neisseria gonorrhoeae; settings: cephalosporin-intermediate resistant strain 35/02
Protocol: as §1, §2, §3

[5] = test system: multidrug-resistant H041 N. gonorrhoeae; test: murine gonococcal infection model (in vivo clearance); design: species or system mice
Text: FIG. 2 illustrates in vivo efficacy of Example 3 in the murine gonococcal infection model. (A) efficacy of Example 3 administered intraperitoneally. […] (B) efficacy of Example 3 administrated orally. Mice were infected with multidrug-resistant H041 N. gonorrhoeae via an established protocol.
Female Mouse Model of Infection: Female BALB/c mice (Charles River Laboratories, NCI Frederick strain of inbred BALB/cAnNCr mice, strain code 555) were allowed to acclimate to the USU animal facility in autoclaved cages and bedding and with autoclaved water and chow for 10 days. After the acclimation period and […] to bacterial inoculation (day −4), vaginal smears were stained with a modified Wright's stain (Hem3, Fisher HealthCare Protocol) and examined to identify mice in anestrus or in the diestrus stage of the estrous cycle. […] On day −2, mice were inoculated vaginally with 20 μl of strain H041 rpsL suspended in PBS; suspensions were passed through a […] filter to remove aggregates and adjusted to the absorbance A600 reading at 600 nm (A600) that was predicted to be 5×10^5 CFU/ml, which is the concentration needed to inoculate mice with the number of viable gonococci needed to infect 80% of mice (infectious dose 80; ID80). […]
Vaginal swabs were quantitatively cultured for Gc on days −1 and 0 following vaginal inoculation to confirm infection prior to treatment. […]

[6] = test system: K. pneumoniae; test: MIC against clinical strains; type: cell-based; settings: Klebsiella pneumoniae; K. pneumoniae clinical strains (n = 10)
Protocol: (§4) The antibiotic activities of the compounds useful in the methods of the disclosure are evaluated by measurements of minimum inhibitory concentrations (MICs) using E. coli, P. aeruginosa, K. pneumoniae and B. cepacia.

[7] = test system: E. coli; test: MIC against clinical strains; type: cell-based; settings: Escherichia coli; E. coli clinical strains (n = 10)
Protocol: as §4

[8] = test system: B. cepacia; test: MIC against clinical strains; type: cell-based; settings: Burkholderia cepacia; B. cepacia clinical strains (n = 5)
Protocol: as §4

[9] = test system: P. aeruginosa; test: MIC against clinical strains; type: cell-based; settings: Pseudomonas aeruginosa; P. aeruginosa clinical strains (n = 10)
Protocol: as §4

[10] = test system: E. coli strain O18:H7:K1; test: murine E. coli intraperitoneal sepsis model; type: in vivo; settings: mice infected with E. coli O18:H7:K1, single dose
Text: FIG. 3 illustrates in vivo efficacy of Example 4 in the murine E. coli sepsis model. (A) dose response curves of Example 4 in a murine intraperitoneal sepsis model. Mice were infected with the E. coli strain O18:H7:K1.

[11] = test system: N. gonorrhoeae HO41; settings: literature value (Ohnishi et al. 2011); cited from earlier work
[12] = test system: N. gonorrhoeae F89; settings: literature value (Unemo et al. 2011); cited from earlier work

In the case of `C[C@@](O)(C(F)F)[C@H](NCCCc1ccc(-c2ccccc2)cc1)C(=O)NO`, the “MIC N. gonorrhoeae HO41” value [1] is reported as 0.03, the “MIC N. gonorrhoeae F89” value [2] is reported as 0.03 and the “MIC N. gonorrhoeae FA19” value [3] is reported as 0.02. For the same compound, the “MIC N. gonorrhoeae 35/02” value [4] was 0.03.
For `C[C@@](O)(C(F)F)[C@H](NC(=O)c1ccc(-c2ccccc2)cc1)C(=O)NO` [Example 2, N-((2S,3S)-4,4-difluoro-3-hydroxy-1-(hydroxyamino)-3-methyl-1-oxobutan-2-yl)-[1,1′-biphenyl]-4-carboxamide], the “MIC N. gonorrhoeae HO41” value [1] was 0.004, the “MIC N. gonorrhoeae F89” value [2] was 0.007 and the “MIC N. gonorrhoeae FA19” value [3] was 0.002. The “MIC N. gonorrhoeae 35/02” value [4] was 0.02.
With `CC(C)(C)C(=O)ONC(=O)[C@@H](NC(=O)c1ccc(-c2ccccc2)cc1)[C@](C)(O)C(F)F` [Example 3, N-((2S,3S)-4,4-difluoro-3-hydroxy-3-methyl-1-oxo-1-((pivaloyloxy)amino)butan-2-yl)-[1,1′-biphenyl]-4-carboxamide] the “in vivo efficacy, administered orally” value ([5]; female BALB/c mice, vaginal infection with H041 rpsL, oral, four consecutive days) was “exhibited in vivo efficacy” and the “in vivo efficacy, administered intraperitoneally” value ([5]; mice infected with H041 N. gonorrhoeae, intraperitoneal, once daily vs twice daily at half of the dose) was “once daily treatment (circles) is more effective than the twice daily treatment at half of the dose”.
`C[C@@](O)(C(F)F)[C@H](NC(=O)c1ccc(C#CC#CC2CC2)cc1)C(=O)NO` [Example 4, 4-(cyclopropylbuta-1,3-diyn-1-yl)-N-((2S,3S)-4,4-difluoro-3-hydroxy-1-(hydroxyamino)-3-methyl-1-oxobutan-2-yl)benzamide] gave an MIC50 [6] of 0.06 µg/mL (≈ 0.159 µM), an MIC90 [6] of 0.25 µg/mL (≈ 0.664 µM) and an MIC50 [7] of 0.02 µg/mL (≈ 0.0531 µM). The MIC90 [7] was 0.02 µg/mL (≈ 0.0531 µM), the MIC50 [8] was 0.03 µg/mL (≈ 0.0797 µM) and the MIC90 [8] was 0.13 µg/mL (≈ 0.345 µM). For the same compound, the MIC50 [9] was 0.16 µg/mL (≈ 0.425 µM), the MIC90 [9] was 0.32 µg/mL (≈ 0.85 µM) and the “MIC N. gonorrhoeae HO41” value [1] was 0.026. For the same compound, the “MIC N. gonorrhoeae F89” value [2] was 0.008, the “MIC N. gonorrhoeae FA19” value [3] was 0.016 and the “MIC N. gonorrhoeae 35/02” value [4] was 0.063. The “clearance of E. coli infection” value [10] was “cleared E. coli infections in the majority of mice”.
In the case of `CO/N=C(\C(=O)N[C@@H]1C(=O)N2C(C(=O)O)=C(CSc3nc(=O)c(=O)[nH]n3C)CS[C@H]12)c1csc(N)n1` [ceftriaxone], the “MIC of ceftriaxone, strain H041” value [11] is listed as 2 to 4 µg/mL and the “MIC of ceftriaxone, strain F89” value [12] is listed as 2 µg/mL.
